Measured values published in US10435369B2, “Tricyclic sulfones as ROR gamma modulators” (BRISTOL-MYERS SQUIBB COMPANY, priority 2016, dated 2019).

Molecular target: RORγ receptor (Homo sapiens, UniProt P51449)
Assay: RORγ Gal4 reporter assay (Gal4-luciferase, inverse agonist activity)
Assay type: cell-based
Conditions: Jurkat cells stably over-expressing hRORγ; Gal4-luciferase reporter; overnight incubation; read-out: RORγ Gal4, IC50
Description: General RORγ Gal4 Reporter Assay
IC50 values were determined.

Chain of RORγ receptor (P51449 269-508): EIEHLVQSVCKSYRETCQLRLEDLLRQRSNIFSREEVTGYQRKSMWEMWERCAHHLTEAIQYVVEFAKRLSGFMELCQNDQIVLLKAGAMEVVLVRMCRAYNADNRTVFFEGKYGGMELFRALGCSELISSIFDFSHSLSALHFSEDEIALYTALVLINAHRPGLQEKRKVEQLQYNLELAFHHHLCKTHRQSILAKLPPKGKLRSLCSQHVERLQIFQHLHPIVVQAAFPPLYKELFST

Compound | IC50
O=C(Nc1ccnc2[nH]ncc12)[C@@H]1CC[C@@]2(S(=O)(=O)c3ccc(F)cc3)c3ccc(C(F)(C(F)(F)F)C(F)(F)F)cc3CC[C@@H]12 [Example 27] | 48 nM
O=C([C@@H]1CC[C@@]2(S(=O)(=O)c3ccc(F)cc3)c3ccc(C(F)(C(F)(F)F)C(F)(F)F)cc3CC[C@@H]12)N1CCS(=O)(=O)CC1 [Example 40] | 14 nM
O=C([C@@H]1CC[C@@]2(S(=O)(=O)c3ccc(F)cc3)c3ccc(C(F)(C(F)(F)F)C(F)(F)F)cc3CC[C@@H]12)N1CC(F)(F)C(F)(F)C1 [Example 63] | 21 nM
O=C([C@@H]1CC[C@@]2(S(=O)(=O)c3ccc(F)cc3)c3ccc(C(F)(C(F)(F)F)C(F)(F)F)cc3CC[C@@H]12)N1CC(F)(F)C[C@@H]1CO [Example 64] | 37 nM
O=C([C@@H]1CC[C@@]2(S(=O)(=O)c3ccc(F)cc3)c3ccc(C(F)(C(F)(F)F)C(F)(F)F)cc3CC[C@@H]12)N1CCC(F)(F)C1 [Example 65] | 13 nM
NC(=O)[C@H]1CC(F)(F)CN1C(=O)[C@@H]1CC[C@@]2(S(=O)(=O)c3ccc(F)cc3)c3ccc(C(F)(C(F)(F)F)C(F)(F)F)cc3CC[C@@H]12 [Example 66] | 15 nM
CS(=O)(=O)N1CCC(NC(=O)[C@@H]2CC[C@@]3(S(=O)(=O)c4ccc(F)cc4)c4ccc(C(F)(C(F)(F)F)C(F)(F)F)cc4CC[C@@H]23)CC1 [Example 77] | 4 nM
O=C([C@@H]1CC[C@@]2(S(=O)(=O)c3ccc(F)cc3)c3ccc(C(F)(C(F)(F)F)C(F)(F)F)cc3CC[C@@H]12)N1CCC2(CCNC2=O)CC1 [Example 82] | 18 nM
O=C1CC2(CCN(C(=O)[C@@H]3CC[C@@]4(S(=O)(=O)c5ccc(F)cc5)c5ccc(C(F)(C(F)(F)F)C(F)(F)F)cc5CC[C@@H]34)CC2)CN1 [Example 83] | 9 nM
O=C1CC2(CCN(C(=O)[C@@H]3CC[C@@]4(S(=O)(=O)c5ccc(F)cc5)c5ccc(C(F)(C(F)(F)F)C(F)(F)F)cc5CC[C@@H]34)CC2)N1 [Example 84] | 5 nM
O=C([C@@H]1CC[C@@]2(S(=O)(=O)c3ccc(F)cc3)c3ccc(C(F)(C(F)(F)F)C(F)(F)F)cc3CC[C@@H]12)N1CCC2(CC1)CNC2=O [Example 85] | 14 nM
O=C(O)C1CCN(C(=O)[C@@H]2CC[C@@]3(S(=O)(=O)c4ccc(F)cc4)c4ccc(C(F)(C(F)(F)F)C(F)(F)F)cc4CC[C@@H]23)C1 (some centres unmarked) [Example 91] | 40 nM
O=C(O)C1CCN(C(=O)[C@@H]2CC[C@@]3(S(=O)(=O)c4ccc(F)cc4)c4ccc(C(F)(C(F)(F)F)C(F)(F)F)cc4CC[C@@H]23)C1 (some centres unmarked) [Example 92] | 41 nM
O=C(O)C1CCCC(NC(=O)[C@@H]2CC[C@@]3(S(=O)(=O)c4ccc(F)cc4)c4ccc(C(F)(C(F)(F)F)C(F)(F)F)cc4CC[C@@H]23)C1 (some centres unmarked) [Example 98] | 22 nM
O=C(O)C1CCCC(NC(=O)[C@@H]2CC[C@@]3(S(=O)(=O)c4ccc(F)cc4)c4ccc(C(F)(C(F)(F)F)C(F)(F)F)cc4CC[C@@H]23)C1 (some centres unmarked) [Example 99] | 14 nM
O=C(O)C1CCCC(NC(=O)[C@@H]2CC[C@@]3(S(=O)(=O)c4ccc(F)cc4)c4ccc(C(F)(C(F)(F)F)C(F)(F)F)cc4CC[C@@H]23)C1 (some centres unmarked) [Example 100] | 53 nM
O=C(N[C@H]1CC[C@H](C(=O)O)CC1)[C@@H]1CC[C@@]2(S(=O)(=O)c3ccc(F)cc3)c3ccc(C(F)(C(F)(F)F)C(F)(F)F)cc3CC[C@@H]12 [Example 102] | 33 nM
O=C(NC12CCC(C(=O)O)(CC1)CC2)[C@@H]1CC[C@@]2(S(=O)(=O)c3ccc(F)cc3)c3ccc(C(F)(C(F)(F)F)C(F)(F)F)cc3CC[C@@H]12 [Example 103] | 31 nM
C[C@H]1CN(C(=O)[C@@H]2CC[C@@]3(S(=O)(=O)c4ccc(F)cc4)c4ccc(C(F)(C(F)(F)F)C(F)(F)F)cc4CC[C@@H]23)CC[C@@H]1C(=O)O [Example 105] | 42 nM
O=C(N[C@@H]1CC[C@@]2(S(=O)(=O)c3ccc(F)cc3)c3ccc(C(F)(C(F)(F)F)C(F)(F)F)cc3CC[C@@H]12)C1(O)CCS(=O)(=O)CC1 [Example 123, N-((3R,3aS,9bS)-9b-((4-fluorophenyl)sulfonyl)-7-(perfluoropropan-2-yl)-2,3,3a,4,5,9b-hexahydro-1H-cyclopenta[a]naphthalen-3-yl)-4-hydroxytetrahydro-2H-thiopyran-4-carboxamide 1,1-dioxide] | 2 nM
CS(=O)(=O)N1CCC(O)(C(=O)N[C@@H]2CC[C@@]3(S(=O)(=O)c4ccc(F)cc4)c4ccc(C(F)(C(F)(F)F)C(F)(F)F)cc4CC[C@@H]23)CC1 [Example 124] | 7 nM
O=C(O)[C@H]1CC[C@H](C(=O)N[C@@H]2CC[C@@]3(S(=O)(=O)c4ccc(F)cc4)c4ccc(C(F)(C(F)(F)F)C(F)(F)F)cc4CC[C@@H]23)CC1 [Example 139] | 24 nM

Compound | IC50
O=C(O)C1CC2(C1)CC(C(=O)N[C@@H]1CC[C@@]3(S(=O)(=O)c4ccc(F)cc4)c4ccc(C(F)(C(F)(F)F)C(F)(F)F)cc4CC[C@@H]13)C2 (some centres unmarked) [Example 141] | 7 nM
O=C(N[C@@H]1CC[C@@]2(S(=O)(=O)c3ccc(F)cc3)c3ccc(C(F)(C(F)(F)F)C(F)(F)F)cc3CC[C@@H]12)C1(O)CCS(=O)(=O)CC1 [Example 144] | 40 nM
Cc1ncn(C)c1C(=O)N[C@@H]1CC[C@@]2(S(=O)(=O)c3ccc(F)cc3)c3ccc(C(F)(C(F)(F)F)C(F)(F)F)cc3CC[C@@H]12 [Example 146] | 13 nM
Cc1nnsc1C(=O)N[C@@H]1CC[C@@]2(S(=O)(=O)c3ccc(F)cc3)c3ccc(C(F)(C(F)(F)F)C(F)(F)F)cc3CC[C@@H]12 [Example 147] | 9 nM
O=C(N[C@@H]1CC[C@@]2(S(=O)(=O)c3ccc(F)cc3)c3ccc(C(F)(C(F)(F)F)C(F)(F)F)cc3CC[C@@H]12)C1CCS(=O)(=O)CC1 [Example 149, N-((3R,3aS,9bS)-9b-((4-fluorophenyl)sulfonyl)-7-(perfluoropropan-2-yl)-2,3,3a,4,5,9b-hexahydro-1H-cyclopenta[a]naphthalen-3-yl)tetrahydro-2H-thiopyran-4-carboxamide 1,1-dioxide] | 9 nM
O=C(N[C@@H]1CC[C@@]2(S(=O)(=O)c3ccc(F)cc3)c3ccc(C(F)(C(F)(F)F)C(F)(F)F)cc3CC[C@@H]12)[C@H](O)C(F)(F)F [Example 157] | 13 nM
O=C(N[C@@H]1CC[C@@]2(S(=O)(=O)c3ccc(F)cc3)c3ccc(C(F)(C(F)(F)F)C(F)(F)F)cc3CC[C@@H]12)[C@@H](O)Cc1c[nH]cn1 [Example 158] | 14 nM
NC(=O)c1c(F)cc(C(=O)N[C@@H]2CC[C@@]3(S(=O)(=O)c4ccc(F)cc4)c4ccc(C(F)(C(F)(F)F)C(F)(F)F)cc4CC[C@@H]23)cc1F [Example 159] | 3 nM
O=C(N[C@@H]1CC[C@@]2(S(=O)(=O)c3ccc(F)cc3)c3ccc(C(F)(C(F)(F)F)C(F)(F)F)cc3CC[C@@H]12)c1cccnc1O [Example 161] | 16 nM
O=C(O)c1ccc(C(=O)N[C@@H]2CC[C@@]3(S(=O)(=O)c4ccc(F)cc4)c4ccc(C(F)(C(F)(F)F)C(F)(F)F)cc4CC[C@@H]23)cc1 [Example 162] | 22 nM
CS(=O)(=O)N1CC(O)(C(=O)N[C@@H]2CC[C@@]3(S(=O)(=O)c4ccc(F)cc4)c4ccc(C(F)(C(F)(F)F)C(F)(F)F)cc4CC[C@@H]23)C1 [Example 168] | 28 nM
O=C(N[C@@H]1CC[C@@]2(S(=O)(=O)c3ccc(F)cc3)c3ccc(C(F)(C(F)(F)F)C(F)(F)F)cc3CC[C@@H]12)c1ccc(=O)[nH]c1 [Example 188] | 9 nM
Cn1cc(C(=O)N[C@@H]2CC[C@@]3(S(=O)(=O)c4ccc(F)cc4)c4ccc(C(F)(C(F)(F)F)C(F)(F)F)cc4CC[C@@H]23)ccc1=O [Example 189] | 9 nM
O=C(O)[C@H]1CC[C@](O)(C(=O)N[C@@H]2CC[C@@]3(S(=O)(=O)c4ccc(F)cc4)c4ccc(C(F)(C(F)(F)F)C(F)(F)F)cc4CC[C@@H]23)CC1 [Example 191, (1s,4s)-4-(((3R,3aS,9bS)-9b-((4-fluorophenyl)sulfonyl)-7-(perfluoropropan-2-yl)-2,3,3a,4,5,9b-hexahydro-1H-cyclopenta[a]naphthalen-3-yl)carbamoyl)-4-hydroxycyclohexane-1-carboxylic acid] | 54 nM
O=C(O)[C@H]1CC[C@](F)(C(=O)N[C@@H]2CC[C@@]3(S(=O)(=O)c4ccc(F)cc4)c4ccc(C(F)(C(F)(F)F)C(F)(F)F)cc4CC[C@@H]23)CC1 [Example 192] | 24 nM
O=C(O)C12C3C4C1C1C2C3C41C(=O)N[C@@H]1CC[C@@]2(S(=O)(=O)c3ccc(F)cc3)c3ccc(C(F)(C(F)(F)F)C(F)(F)F)cc3CC[C@@H]12 (some centres unmarked) [Example 193] | 97 nM
C[C@H]1C[C@H](C(=O)O)CC[C@H]1C(=O)N[C@@H]1CC[C@@]2(S(=O)(=O)c3ccc(F)cc3)c3ccc(C(F)(C(F)(F)F)C(F)(F)F)cc3CC[C@@H]12 [Example 194] | 32 nM
CC(C)(N)C(=O)N[C@@H]1CC[C@@]2(S(=O)(=O)c3ccc(F)cc3)c3ccc(C(F)(C(F)(F)F)C(F)(F)F)cc3CC[C@@H]12 [Example 197] | 30 nM
CC(C)(N)[C@H](N)C(=O)N[C@@H]1CC[C@@]2(S(=O)(=O)c3ccc(F)cc3)c3ccc(C(F)(C(F)(F)F)C(F)(F)F)cc3CC[C@@H]12 [Example 198] | 17 nM
CC(C)(C(=O)N[C@@H]1CC[C@@]2(S(=O)(=O)c3ccc(F)cc3)c3ccc(C(F)(C(F)(F)F)C(F)(F)F)cc3CC[C@@H]12)N1CCNCC1 [Example 200] | 63 nM
CS(=O)(=O)N[C@@H]1CC[C@@]2(S(=O)(=O)c3ccc(F)cc3)c3ccc(C(F)(C(F)(F)F)C(F)(F)F)cc3CC[C@@H]12 [Example 201, N-((3R,3aS,9bS)-9b-((4-fluorophenyl)sulfonyl)-7-(perfluoropropan-2-yl)-2,3,3a,4,5,9b-hexahydro-1H-cyclopenta[a]naphthalen-3-yl)methanesulfonamide] | 7 nM
CC1(O)CN(C(=O)N[C@@H]2CC[C@@]3(S(=O)(=O)c4ccc(F)cc4)c4ccc(C(F)(C(F)(F)F)C(F)(F)F)cc4CC[C@@H]23)C1 [Example 204] | 9 nM
